Experimental data reported in patent US12485114B2, “Materials and methods useful to induce cancer cell death via methuosis or autophagy or a combination thereof” (The University of Toledo, priority 2017, dated 2025).

What was measured:
Format in all cases: cell-based
cancer cells = assay: Loss of viability and non-apoptotic cell death assessment (nuclei, electron microscopy, annexin, z-VAD-fmk)
Procedure: Cells treated with BAPT-27 lose their viability within 72 h. […] Through electron microscopy there were clearly no signs of apoptosis (i.e., cell shrinkage, nuclear condensation, blebbing) seen.

[1] = tested on: resistant colon cancer cell lines S1M180; assay: Reversal of multidrug resistance, combined with mitoxantrone
Source text: (§1) The cells became sensitive to the cytotoxicity of mitoxantrone when combined with BAPT-27. Further, BAPT-27 induced death in apoptosis resistant cell lines including colon cancer cell lines that are missing important pro-apoptotic genes Bax and Bak using well established models (HCT116, HCT116 Bax −/−, HCT116 Bak −/−, HCT116 Bax/Bak−/−). Accordingly, BAPT-27 represents a family of compounds that induce cell death in sensitive and resistant cancers, as well as those cancers that are refractory to death by conventional apoptosis inducing anticancer agents.
(§2) (FIG. 46). NSCLC cells resistant to apoptosis are also sensitive to the activities of BAPT-27.

[2] = tested on: resistant lung cancer cell lines H460-MX20; assay: as above
Source text: as §1, §2

[3] = tested on: autophagic signaling pathways; assay: Autophagy markers and autophagy inhibitors (acridine orange, LC3B, 3-MA, chloroquine)
Source text: BAPT-27 induced vacuoles that combine both methuosis and autophagy characteristics. […] The author mechanism involved in this non-conventional cell death mechanism is a special type of […] that has been termed methuosis. The treatment of cells by BAPT-27 caused the displacement of the cytoplasm by vacuoles derived from macropinosomes. At early time points, the vacuoles are small in size. The small vacuoles then increase in number, and then fuse with each other over time forming larger vacuoles that cover the whole cytoplasm. Eventually, this causes a disturbance of the cell membrane and burst of the cells, release of fluids, detachment of cell, and death. […] Accordingly, alteration in both autophagic and methuosis mechanisms are involved in the BAPT-27 cell death process.
Without wishing to be bound by theory, it is believed that the mechanism by which BAPT-27 is produces its activities is due to alteration in key signaling pathways and several cellular events: (1) significant activation of macropinocytosis (FIGS. 32-33), and (2) significant alteration in autophagic signaling resulting in the accumulation of autophagic markers such as LC3 II and acridine orange (FIG. 37).
At 6 h treatment, the vacuoles were tiny and smaller in size in combination compared to BAPT-27 alone. (FIG. 48). […] (FIG. 48).

[4] = tested on: HCT116 colon cancer cells; assay: Colony formation assay
Procedure: The cytotoxic efficacy of BAPT-27 was also confirmed by colony formation assay. Colony formation assay was used to determine the long-term capacities of the compound to inhibit cell proliferation and viability. The cells were treated for 2 or 3 days and allowed to grow in compound free medium for up to two weeks. […] It was also observed that a higher concentration of BAPT-27 was needed to reduce the colony formation at 48 h compared to longer treatment (72 h). (FIG. 28A).
The cells were treated for 2 or 3 days and allowed to grow in compound free medium for up to two weeks. […] The number of colonies formed/concentration at each time point is shown in the bar graph in FIG. 28B.

HCT116 cells = assay: Electron microscopy of treated cells
Procedure: The vacuoles are indicated by V in FIG. 31. The single membranes of the vacuoles are destroyed (indicated by arrows in FIG. 31), allowing small vacuoles to merge, forming bigger vacuoles.
The vacuoles are fluid filled with traces of membranes due to vacuoles fusion events. The nuclei are healthy with no signs of chromatin condensation and are unaffected at even a high concentration (30 μM). However, as the vacuoles coalesce and grow in size, the nuclei are pushed on the edges of the cells. The nuclei are indicated by white N, and the vacuoles are indicated by black arrows, in FIG. 32.
(FIG. 38). The ER is indicated by black arrows.

lysosomes = assay: Lysotracker red dye accumulation
HCT-116 cells = assay: 3D transmission electron tomography of lysosomes
Source text: The 3D reconstruction was loaded into the Avizo 3D Visualization software to reveal lysosomal structure through volume rendering and segmentation. FIGS. 50B-50C show increased autophagic vesicles (yellow) and increased lysosomal cargo (green).
(FIG. 50A & FIG. 50B & FIG. 50C).

[5] = tested on: Transcription factor EB (TFEB)— associated lysosomal and autophagy genes; assay: RNA-seq analysis of TFEB-associated lysosomal and autophagy genes; conditions: HCT-116, 10 μM, 6 h
Source text: Autophagosome and lysosomal homeostasis is governed by transcription factor EB (TFEB)—mTOR signaling pathways (TFEB-mTOR pathway). […] (FIG. 51A & FIG. 51B & FIG. 51C).

[6] = cells became sensitive to mitoxantrone in combination

Sc1nnc(-c2ccncc2)n1/N=C/c1c[nH]c2ccccc12 [BAPT-27, 4-(((1H-Indol-3-Yl)Methylene)Amino)-5-(Pyridin-4-Yl)-4H-1,2,4-Triazole-3-Thiol]
alteration in the intrinsic apoptotic pathways (proapoptotic and antiapoptotic proteins) (cancer cells): no alteration
annexin fluorescence (cancer cells): not changed
apoptotic changes of nuclei (chromatin condensation or DNA fragmentation) (cancer cells): no apoptotic changes
protection from death by pan-caspase inhibitor z-VAD-fmk (cancer cells): did not protect the cells from death
time to loss of viability (cancer cells; cells treated with BAPT-27): ≤ 72 h
cells observed to have died through apoptosis (cancer cells; electron microscopy, very high concentration): one in 100 cells
block of vacuoles formation by z-VAD (cancer cells; z-VAD 100 μM, BAPT-27 10 μM, 24 h and 72 hr): does not block
delivery and sensitivity of doxorubicin and mitoxantrone [1]: increase the delivery and enhanced sensitivity
reversal of multidrug resistance [1, 6]: reversed multidrug resistance
delivery and sensitivity of doxorubicin and mitoxantrone [2]: increase the delivery and enhanced sensitivity
reversal of multidrug resistance [2, 6]: reversed multidrug resistance
LC3B cleavage and LC3B loci at the borders of the vacuoles [3]: induced the cleavage of LC3B
acridine orange in vacuoles (activated acidic compartments) [3]: accumulation of acridine orange
inhibition of vacuoles formation or cytotoxic effects by autophagy inhibitors 3-MA and chloroquine [3]: did not inhibit
block of vacuoles formation by 3-methyl adenine ([3]; 3-MA 300 μM, BAPT-27 10 μM, 24 h and 72 hr): does not block
effect of chloroquine on vacuoles formation ([3]; CQ 5 μM, BAPT-27 10 μM, 6 h): delay of vacuoles formation
effect of chloroquine on vacuoles regaining normal size ([3]; CQ 5 μM, BAPT-27 10 μM, 24 h): could not prevent
colonies number and size ([4]; HCT116, 48 h and 72 h, especially after 72 h treatment): significant inhibition in the colonies number and size
colony formation ([4]; treated two and three days, then compound free medium up to two weeks): significantly inhibited colony formation
formation of single membrane vacuoles (electron microscopy) (HCT116 cells; 10 μM): extensive formation of single membrane vacuoles
state of nuclei (electron microscopy) (HCT116 cells; high concentration (30 μM)): unaffected
state of endoplasmic reticulum (electron microscopy) (HCT116 cells; highest concentration 100 μM): normal and not stressed
lysotracker red dye inside the formed vacuoles (lysosomes): significant accumulation
autophagic vesicles and lysosomal cargo (HCT-116 cells): increased autophagic vesicles and increased lysosomal cargo
lysosomal size (HCT-116 cells): significant increase in lysosomal size
expression of TFEB-associated lysosomal and autophagy genes [5]: upregulated
